Data taken from patent US10702489B2, “Treatment of nervous system disorders using combinations of RXR agonists and thyroid hormones” (IO Therapeutics, Inc., priority 2015, dated 2020).
Entries after “also recorded” stand apart in the source; their conditions may differ.

Key:
[1] = tested on: C57BL/6J mice with cuprizone+rapamycin demyelination; experiment: 12-week cuprizone/rapamycin demyelination model, 6 weeks of treatment; type: in vivo, mouse; settings: 6 weeks of treatment after 12 weeks CR
Excerpt: All animals were sacrificed after 12 weeks of CR or after further 6 weeks of treatment to evaluate myelin in white matter (corpus callosum) and gray matter (hippocampus and cortex). In addition, the size of myelinated axons was quantified and the large myelinated axons were further assessed by 3D-electron microscopy (3D-EM). A total of 40 animals were included in the study, where all 40 animals received CR demyelination for 12 weeks. After demyelination, a subset (n=10) of animals are sacrificed to serve as controls to assess baseline demyelination. […] Floating brain sections are immunostained with myelin prolipid protein (PLP) to visualize and quantify myelin in gray matter, hippocampus (FIG. 16A) and cortex (FIG. 16B).

[2] = tested on: early Parkinson's Disease subjects; experiment: open-label clinical study in early Parkinson's Disease subjects; type: in vivo, human; settings: for Change in TSH / Total Motor Change / Total UPDRS Change: 15 days
Experimental: An open-label, single site clinical study of early Parkinson's Disease subjects treated with IRX4204 was conducted to determine whether the preclinical promise of IRX4204 as a disease modifying agent for PD will translate to the clinical setting upon treatment of early PD patients with IRX4204 as determined by Unified Parkinson's Disease Rating Scale (UPDRS) measurements and safety assessments. The changes in UPDRS scores were correlated with circulating thyroxine levels.
Five subjects were recruited for each of the three dose levels. All fifteen subjects completed 15 days of dosing.
All subjects ([…]) completed 15 days of dosing and returned to the clinic at the end of 2 weeks (day 15-17) for UPDRS score determination and safety assessments including determination of plasma thyroxine (T4) levels. Percent changes in Total Motor scores, Total UPDRS scores and plasma T4 values were determined according to the following: […]

[3] = tested on: mouse oligodendrocyte progenitor cells (OPCs); experiment: mouse OPC differentiation with IRX4204 and T3; type: cell-based; settings: 5-day treatment; IRX4204 10, 1, 0.1 nM
Experimental: OPCs were derived from plp-EGFP expressing mice.
Therapeutic agents were tested in 96-well plates (6 wells per concentration). […] All media contained 0.1% DMSO. At the end of the 5-day treatment, cells were imaged on Cellomics in two channels and algorithms were used to count nuclei and EGFP+oligodendrocytes.

[4] = tested on: one year old rats, caudal cerebellar peduncle lesions; experiment: focal ethidium bromide induced rat model of demyelination; type: in vivo; settings: IRX4204 10 mg/kg/day oral, thyroxine 20 ng/g s.c., 14 days
Experimental: The experiment uses rats of relatively advanced age (1 year) since such rats undergo remyelination in a less efficient manner, thereby providing data that are more relevant to the clinical treatment of human patients with multiple sclerosis or other demyelination disorders.
Focal demyelination is induced in one year old rats (approximately 300 g in weight) by injecting stereotactically 5 μl of ethidium bromide solution (0.01% vol/vol in saline) in a bilateral manner into the caudal cerebellar peduncles (CCP). […] The rats are killed on day 24 post-ethidium bromide treatment for analysis of remyelination by quantitative polymerase chain reaction (qPCR) and microscopy.

Nurr1/RXR heterodimer = target: T1, Nurr1/RXR heterodimer (Homo sapiens, UniProt P19793); experiment: receptor transactivation assay Nurr1/RXR; type: cell-based; settings: COS7 cells
T1 construct: full length Nurr-1 with or without full-length RXRα plasmid; expressed in transfected cells; host or cells: COS7
T1 sequence (P19793 whole entry): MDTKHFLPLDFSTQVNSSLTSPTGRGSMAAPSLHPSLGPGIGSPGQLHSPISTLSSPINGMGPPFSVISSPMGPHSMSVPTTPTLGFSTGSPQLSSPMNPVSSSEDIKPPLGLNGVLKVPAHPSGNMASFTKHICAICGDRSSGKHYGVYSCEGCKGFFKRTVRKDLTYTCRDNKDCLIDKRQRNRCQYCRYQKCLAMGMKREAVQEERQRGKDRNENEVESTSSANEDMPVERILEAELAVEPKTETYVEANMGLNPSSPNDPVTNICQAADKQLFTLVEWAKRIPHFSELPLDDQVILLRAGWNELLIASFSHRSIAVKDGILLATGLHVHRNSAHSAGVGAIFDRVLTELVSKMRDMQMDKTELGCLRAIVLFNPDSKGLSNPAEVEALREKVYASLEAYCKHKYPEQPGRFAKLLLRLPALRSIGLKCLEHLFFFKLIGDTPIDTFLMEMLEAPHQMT
T1 sequence (P43354 whole entry partner): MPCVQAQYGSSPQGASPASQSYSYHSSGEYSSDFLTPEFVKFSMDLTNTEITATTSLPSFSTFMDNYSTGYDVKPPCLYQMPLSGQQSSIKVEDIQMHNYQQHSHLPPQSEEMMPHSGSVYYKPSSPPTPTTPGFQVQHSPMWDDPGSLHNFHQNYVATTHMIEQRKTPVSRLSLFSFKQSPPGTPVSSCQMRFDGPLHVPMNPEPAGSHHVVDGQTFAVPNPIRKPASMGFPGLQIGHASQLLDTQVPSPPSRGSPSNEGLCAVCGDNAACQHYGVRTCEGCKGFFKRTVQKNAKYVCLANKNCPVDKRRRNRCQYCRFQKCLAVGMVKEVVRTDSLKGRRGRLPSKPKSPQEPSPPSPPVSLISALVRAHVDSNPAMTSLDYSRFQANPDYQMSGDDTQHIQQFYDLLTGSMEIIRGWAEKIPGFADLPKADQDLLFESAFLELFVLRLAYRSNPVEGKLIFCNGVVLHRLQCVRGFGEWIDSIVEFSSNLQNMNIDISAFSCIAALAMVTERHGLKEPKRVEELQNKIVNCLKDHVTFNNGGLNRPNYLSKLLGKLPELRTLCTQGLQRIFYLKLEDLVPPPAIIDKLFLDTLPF
Excerpt: For PPARγ: CV-1 cells were transfected with 3×(rAOX/DR1)-tk-Luc reporter gene and an expression vector for PPARγ. For FXR:CV-1 cells were transfected with 3×(IBABP/IRI)-tk-Luc reporter gene and vectors for FXR and RXRα. For LXR:CV-1 cells were transfected with 3×(PLTP/LXRE)-tk-Luc reporter gene with vectors for LXRα or LXRβ. For Nurr1: COS7 cells were transfected with 3×NBRE-tk-luc reporter gene and full length Nurr-1 with or without full-length RXRα plasmid. […] Luciferase data were normalized to co-transfected β-gal activity. Luciferase activity was expressed as percent of maximal activity obtained using specific agonists. Rosiglitazone (PPARγ), GW4064 (FXR), T0901317 (LXR).

Which “size of myelinated axons in the corpus callosum” value [1] does the source give for `CC(/C=C/[C@@H]1C[C@]1(C)c1ccc2c(c1)C(C)(C)CCC2(C)C)=C\C(=O)O` [IRX4204, 3,7-dimethyl-6(S),7(S)-methano,7-[1,1,4,4-tetramethyl-1,2,3,4-tetrahydronaphth-7-yl]2(E),4(E) heptadienoic acid] here?
The value was “significantly increases; also recorded: shift in distribution to larger axon diameter”.

What about the “Change in TSH” value ([2]; 5 mg/day) of the same compound?
Its value is −28.9%.

What about the “Total Motor Change” value ([2]; 5 mg/day) of the same compound?
Its value is −31.4%.

What about the “Total UPDRS Change” value ([2]; 5 mg/day) of the same compound?
The value was −18.7%.

What about the “Change in TSH” value ([2]; 10 mg/day) of the same compound?
The value was −36.6%.

And the “Total UPDRS Change” value ([2]; 10 mg/day)?
Its value is −13.6%.

What about the “reduction in Total UPDRS scores” value ([2]; 20 mg/day) of the same compound?
The value was 6.6%.

And the “reduction of plasma T4” value ([2]; 20 mg/day)?
The value was 98.8%.

What about the “Change in TSH” value ([2]; 20 mg/day) of the same compound?
Its value is −98.8%.

And the “Total Motor Change” value ([2]; 20 mg/day)?
The value was −14.5%.

And the “oligodendrocyte production (EGFP+ oligodendrocytes)” value [3]?
Its value is “clear dose-responses”.

What about the “Mbp expression (real-time qPCR of lesion samples)” value [4] of the same compound?
The value was “increase”.

What about the “Nkx2.2+ oligodendrocyte precursor cells (OPCs) in lesions” value [4] of the same compound?
Its value is “increased”.

And the “Pdgfra expression (real-time qPCR of lesion samples)” value [4]?
The value was “increase”.

And the “density of CC1+ differentiated oligodendrocytes in lesions” value [4]?
The value was “increased”.

And the “density of Olig2+ oligodendrocyte lineage cells in lesions” value [4]?
The value was “increased”.

What about the “remyelinated axons (ultrastructural analyses of CCP lesions)” value [4] of the same compound?
Its value is “more remyelinated axons than vehicle treatment”.

What about the “activation of Nurr1/RXR permissive heterodimer” value (Nurr1/RXR heterodimer) of the same compound?
The value was “selectively activates”.
